# PMC9982066, “Inhibition of Ehrlichia chaffeensis infection by cell-permeable macrocyclic peptides that bind type IV secretion effector Etf-1” (PNAS Nexus, 2023)
# Starred links: 1 amine or outer side, 2 acyl side, 3 side chain; linkers in the order of their positions; H or OH if unused. Positions of bridges follow the written chain, without caps; N, C: chain ends. Non-standard residues stand in square brackets, D forms with d. Residues, ends and D or L forms follow the SMILES beside them. Trimesoyl = O=C(c1cc(C(=O)[*:2])cc(C(=O)[*:3])c1)[*:1]; 2Nal = N[C@@H](Cc1ccc2ccccc2c1)C(=O)O; Dap = NC[C@H](N)C(=O)O
# Experiments:
# [1] = target: Etf-1 (Ehrlichia chaffeensis, UniProt Q2GG12); experiment: FP assay of Etf-1 binding with FAM-labeled peptides
# Method: The peptides were labeled at their C-terminus with carboxyfluorescein (FAM) through a β-Ala-β-Ala-Lys linker and evaluated for binding to Etf-1 by using a fluorescence polarization (FP) assay. […] This outcome is not unexpected, as screening OBOC libraries is often complicated by false positives, due to the presence of high ligand densities on library beads ([28]).
# Fig. 2. Determination of binding affinity of Etf-1-binding peptides by FP assay. […] FAM-labeled peptide (50 nM) was incubated with serially diluted Etf-1 (starting from 25–30 μM in PBS, pH 7.4, supplemented with 5 mM DTT and 0.01% Triton X-100) for 1 h at RT. FP values were measured on a Tecan Infinite M1000 Pro plate reader. Titration curves (n ≥ 3) were fitted using GraphPad Prism and analyzed with TraceDrawer to calculate dissociation constants (KD). […] Data were analyzed using GraphPad Prism and fitted to a four-parameter variable slope equation to determine IC50 values.
# Etf-1 and macrocyclic peptides were serially diluted in PBS supplemented with 5 mM DTT and 0.01% Triton X-100 (v/v). FAM-labeled peptides (50 nM) were prepared from a 10-μM DMSO stock and incubated with serially diluted Etf-1 for 1 h at room temperature (RT). Twenty microliters of the solutions were transferred to a black 384-well plate (Greiner Bio-One) and FP values were measured on a Tecan Infinite M1000 Pro plate reader with excitation and emission wavelengths at 470 and 535 nm, respectively. Titration curves (n ≥ 3) were fitted using GraphPad Prism v8.0 (GraphPad, La Jolla, CA, USA), and analyzed with TraceDrawer software v1.8 (Ridgeview Instruments AB, Uppsala, Sweden) to calculate the dissociation constant (KD, in nM).
# [2] = system: E. chaffeensis; experiment: E. chaffeensis infection of THP-1 cells, qPCR of 16S rRNA gene normalized to human actin; format: cell-based, Ehrlichia chaffeensis; settings: 10 μM, 2 days, vs DMSO control
# [3] = system: E. chaffeensis; experiment: morphological examination of E. chaffeensis infection of THP-1 cells by Diff-Quik staining; settings: THP-1 cells, Fig. S4 (with Figs. 5, S3)
# [4] = system: Etf-1-GFP; experiment: mitochondrial localization of ectopically expressed Etf-1-GFP in RF/6A cells; format: cell-based, Ehrlichia chaffeensis; settings: 10 μM, 2 days
# Method: For mitochondria localization analysis, RF/6A cells were seeded onto a cover glass in a 12-well plate for 3 h, then infected with E. chaffeensis at ∼30 MOI. Alternatively, cells were transfected with Etf-1-GFP or Etf-1-DsRed plasmids using Fugene HD (Promega) or by electroporation at 100 V and 1,000 µF using the Gene Pulser Xcell System (BioRad) according to the manufacturers’ instructions ([16]). […] To examine the roles of macrocyclic peptides on Etf-1 localization on E. chaffeensis inclusions, infected RF/6A cells were treated with 10 μM peptides at 3 h pi for 2 days. At 2 days pi or pt, cells were washed 3 times with PBS, then fixed in 4% PFA for 20 min. Native Etf-1 and mitochondria marker cytochrome C proteins were labeled with rabbit anti-Etf-1 IgG and mouse anti-cytochrome C, then with AF488-conjugated goat anti-rabbit and anti-mouse secondary antibodies in PGS (PBS with 0.1% gelatin and 0.1% saponin) for 1 h each at RT. Host-cell and Ehrlichial DNAs were stained with 300 nM DAPI, and fluorescence with differential interference contrast images were observed and captured with a DeltaVision deconvolution microscope (Applied Precision, Issaquah, WA, USA). Percentages of Etf-1 protein colocalization with macrocyclic peptides or E. chaffeensis inclusions were quantified by counting 10–20 cells per group from three independent experiments.
# [5] = system: BECN1 binding to Etf-1; experiment: streptavidin magnetic beads pull-down of BECN1 with biotin-Etf-1, Western blot; format: biochemical; settings: 10 µM peptide; band intensities, DMSO control set as 1; Fig. 8B
# Etf-1, sequence (Q2GG12 entry or part of it): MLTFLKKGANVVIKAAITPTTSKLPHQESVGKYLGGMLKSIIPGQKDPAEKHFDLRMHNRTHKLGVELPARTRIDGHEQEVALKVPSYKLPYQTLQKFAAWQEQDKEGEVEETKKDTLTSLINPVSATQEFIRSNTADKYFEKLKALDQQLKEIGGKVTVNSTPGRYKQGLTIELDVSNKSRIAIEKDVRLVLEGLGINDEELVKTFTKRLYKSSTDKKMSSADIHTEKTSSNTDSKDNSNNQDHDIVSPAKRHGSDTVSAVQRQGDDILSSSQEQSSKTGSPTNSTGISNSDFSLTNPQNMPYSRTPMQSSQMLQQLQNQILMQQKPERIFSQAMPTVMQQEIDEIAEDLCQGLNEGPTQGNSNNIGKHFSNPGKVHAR
structure (smiles),measurement,setting,value
"C[C@H]1NC(=O)[C@H](CO)NC(=O)[C@@H](CCC(=O)O)NC(=O)c2cc3cc(c2)C(=O)NC[C@H](NC(=O)[C@H](CO)NC(=O)[C@H](Cc2c[nH]cn2)NC(=O)[C@@H](Cc2ccccc2)NC1=O)C(=O)N[C@H](Cc1ccccc1)C(=O)N[C@@H](Cc1ccc2ccccc2c1)C(=O)N[C@@H](CCCNC(=N)N)C(=O)N[C@H](CCCNC(=N)N)C(=O)N[C@@H](CCCNC(=N)N)C(=O)N[C@H](CCCNC(=N)N)C(=O)N[C@H](C(N)=O)CNC3=O [Peptide C17, TMA-glu-Ser-ala-phe-His-Ser-Dap-phe-Nal-Arg-arg-Arg-arg-Dap] ([dE]S[dA][dF]HS[Dap][dF][2Nal]R[dR]R[dR][Dap]-NH2; linker N-7-14 via Trimesoyl)",Kd,[1],> 25 µM
same,inhibition of E. chaffeensis infection,[2],no effect
same,E. chaffeensis infection (numbers and sizes of morulae),[3],did not inhibit
same,effect on mitochondrial localization of Etf-1-GFP,[4],neither peptide B7 nor C17 affected mitochondrial localization
same,BECN1/Etf-1 Ratio,[5],1.17
